Measurements: PMC9227536, “Prediction of Pharmacokinetics of IDP-73152 in Humans Using Physiologically-Based Pharmacokinetics” (Pharmaceutics, 2022)
Where two headings read alike, the source gives them in different places.

Tests used:
[1] = Stability in plasma, human; type: in vitro ADME; settings: humans plasma
Description: The unbound fractions of IDP-73152 in various matrices were measured according to the manufacturer's instructions for the rapid equilibrium dialysis (RED) device (ThermoFisher Scientific, Waltham, MA, USA). Briefly, IDP-73152 was added to the plasma or the microsomal/hepatocyte incubation buffer from various species (i.e., mouse, rat, dog, and human for microsomal incubation; rat for hepatocyte incubation) to obtain final concentrations of the compound at 0.3, 1, and 3 μM. After the membrane insert was placed in the RED plate, the solution containing IDP-73152 was added (400 μL) to the sample chamber, and the dialysis buffer (600 μL) was added to the buffer chamber. The RED plate was sealed with parafilm and then incubated at 37 °C in the orbital shaker (Lab Companion, Daejeon, Korea) at 100 rpm for 5 h. […] The IDP-73152 concentration in the buffer/sample chambers (i.e., CBuffer Chamber and CSample Chamber) was determined by an assay. Thus, the fraction unbound was defined as:(2) % Fraction unbound=(CBuffer Chamber/CSample Chamber)×100% When necessary, the stability of IDP-73152 in the matrix was also determined at 5 h. […] Accordingly, the kinetics of IDP-73152 instability were determined in the rat blood at a final concentration of 0.3 μM. […]

[2] = in vitro; type: in vitro ADME; settings: microsomes
Description: The unbound fractions of IDP-73152 in various matrices were measured according to the manufacturer’s instructions for the rapid equilibrium dialysis (RED) device (ThermoFisher Scientific, Waltham, MA, USA). Briefly, IDP-73152 was added to the plasma or the microsomal/hepatocyte incubation buffer from various species (i.e., mouse, rat, dog, and human for microsomal incubation; rat for hepatocyte incubation) to obtain final concentrations of the compound at 0.3, 1, and 3 μM. After the membrane insert was placed in the RED plate, the solution containing IDP-73152 was added (400 µL) to the sample chamber, and the dialysis buffer (600 μL) was added to the buffer chamber. The RED plate was sealed with parafilm and then incubated at 37 °C in the orbital shaker (Lab Companion, Daejeon, Korea) at 100 rpm for 5 h. After a 50 μL aliquot was aspirated from both the sample and buffer chambers, an equal volume of protein-free buffer or blank medium was replaced in the aspirated sample or buffer to render the matrices compositionally identical. The IDP-73152 concentration in the buffer/sample chambers (i.e., CBuffer Chamber and CSample Chamber) was determined by an assay. Thus, the fraction unbound was defined as:(2) % Fraction unbound=(CBuffer Chamber/CSample Chamber)×100%

[3] = PK study in rats (intravenous and oral); type: in vivo, Male Sprague Dawley rats; settings: for Vd / clearance: iv, 10 mg/kg; for Vd: read-out: Vss; for clearance: read-out: CLp (converted); for Tmax: 20 mg/kg
Description: The in vivo experimental protocol was approved by the Institutional Animal Care and Use Committee of Research Laboratory at Ildong pharmaceutical Co., Ltd. (Ref. No.: IDL-PDF-001 and 09005-11004). Animals were acclimatized to the laboratory conditions for at least 1 week before the experiments and were kept in the standardized conditions (20–25 °C, 55 ± 5% humidity, and a 12 h light/dark cycle). The animals fasted overnight prior to drug administration, and food was resupplied 4 h post-dose. Male Sprague Dawley rats (Orient Bio Inc., Seongnam, Korea), weighing 194.7 g to 205.4 g, were used in this study. IDP-73152 was administered to rats at a single dose of 2.5, 5, or 10 mg/kg via tail vein injection (the injection volume fixed at 2 mL/kg in saline). […] Blood samples (100 μL) were collected from the jugular vein at 0.167, 0.33, 0.5, 1, 2, 4, and 8 h after the administration. Plasma was separated/collected by centrifugation of the blood samples for 5 min at 10,000× g/4 °C and stored at −80 °C until analysis. When necessary, the biliary and renal excretion of IDP-73152 were studied in bile duct-cannulated rats after the intravenous injection (5 mg/kg) to investigate its route(s) of excretion in rats. Bile and urine samples were collected up to 8 h (i.e., approximately 5 times of the terminal phase half-life) after the administration and the samples were stored at −80 °C until the analysis. The cumulative excretion of the bile and the urine to infinite time was determined by assuming that the excretion was practically completed by the last collection time. When necessary for a model independent PK analysis, a standard moment analysis was carried out with WinNonlin software using either representative (for the study with mice) or individual (for the study with rats, dogs, and humans) concentration–time profile(s). For the calculation of PBPK models, Berkeley Madonna 8.3.18 (Albany, CA, USA) was used with the fourth-order Runge–Kutta method for numerical integration.

[4] = male, Sprague Dawley, rat, plasma, intravenous, across doses of 2.5, 5, and 10 mg/kg

## CC(C)(C)[C@H](NC(=O)[C@H](CC1CCCC1)CN(O)C=O)C(=O)N1CCC(NCc2cc(F)c(F)cc2F)CC1 [IDP-73152]
[1]; 5 h, 37 °C
  percentage remaining in plasma at 5 h: 98.2 ± 3.4%
[1]; preliminary study
  stability in plasma: stable
[2]; dog
  fraction unbound at 5 h: 0.507 ± 0.04
[2]; human
  fraction unbound at 5 h: 0.579 ± 0.006
[2]; mouse
  fraction unbound at 5 h: 0.571 ± 0.023
[2]; rat
  fraction unbound at 5 h: 0.439 ± 0.043
[3]; male, Sprague Dawley, rat, plasma, intravenous 2.5 mg/kg, read-out: Observed AUCinf
  AUC(0-inf): 1320 ± 130 ng·h/mL
[3]; male, Sprague Dawley, rat, plasma, intravenous 5 mg/kg, read-out: Observed AUCinf
  AUC(0-inf): 3270 ± 1820 ng·h/mL
[3]; male, Sprague Dawley, rat, plasma, intravenous 10 mg/kg, read-out: AUCinf
  AUC(0-inf): 5030 ± 380 ng·h/mL
[3]; male, Sprague Dawley, rat, plasma, intravenous 10 mg/kg, read-out: t1/2 (converted)
  half-life: 1.43 ± 0.11 h
[3]; male, Sprague Dawley, rat, plasma, intravenous 10 mg/kg, moment analysis
  Vd: 2.54 ± 0.26 L/kg
[3]; male, Sprague Dawley, rat, plasma, intravenous 10 mg/kg
  clearance: ~33.3 mL/min/kg
[3]; [4]
  clearance: 30.8 to 33.3 mL/min/kg
  Vd: 2.45 to 2.78 L/kg
[3]; male, Sprague Dawley, rat, plasma, oral 20 mg/kg
  Cmax: 1650 ± 440 ng/mL
[3]; male, Sprague Dawley, rat, plasma, oral 20 mg/kg vs intravenous 10 mg/kg, read-out: F (bioavailability)
  bioavailability: 55.3%
[3]; male, Sprague Dawley, rat, plasma, oral 20 mg/kg, read-out: AUCinf
  AUC(0-inf): 5570 ± 1590 ng·h/mL
[3]; male, Sprague Dawley, rat, plasma, oral 20 mg/kg, read-out: t1/2 (terminal phase half-life) (converted)
  half-life: 2.97 ± 1.4 h
[3]; male, Sprague Dawley, rat, plasma, po, oral 20 mg/kg, read-out: Tmax
  Tmax: 0.667 h
[3]; oral 20 mg/kg
  Tmax: 0.638 ± 0.29 h
